The values that follow come from publication PMC4660620, “Aspidosperma (Apocynaceae) plant cytotoxicity and activity towards malaria parasites. Part II: experimental studies with Aspidosperma ramiflorum in vivo and in vitro” (Memórias do Instituto Oswaldo Cruz, 2015).

This assay relates to Plasmodium berghei, the NK65 strain. Nature of the assay: Drug suppressive test against P. berghei in mice. The assay is classed as in vivo, Plasmodium berghei in Swiss outbred mice. The procedure:
Adult Swiss outbred mice (20 ± 2 g weigh) were inoculated by the intraperitoneal route with 1 × 10^5 red blood cells infected withP. berghei, the NK65 strain. Groups of 20-30 infected mice were kept together for 2-24 h, then were divided randomly in groups of up to six animals per cage and were treated by gavage for three consecutive days with 25 mg/Kg or 50 mg/Kg of the test compounds diluted in DMSO 3% (v/v). Two control groups were used and either received CQ (20 mg/kg, diluted in water) or the drug vehicle. Smears prepared from the tail blood of the mice on days 5-10 post-infection were methanol-fixed, stained with Giemsa and examined microscopically.

Regarding `CCN(CC)CCCC(C)Nc1ccnc2cc(Cl)ccc12` (stereo not drawn) [Chloroquine, chloroquine], the “Mice survival (increase)” value (20 mg/kg, increase compared to survival of nontreated controls) is on record as above 8 days. Besides, the “Mice survival” value (mice, 20 mg/kg by gavage, three consecutive days) is above 30 days. The “Parasitaemia reduction at day 10” value (mice, 20 mg/kg by gavage, three consecutive days, in relation to untreated mice) came to 100%.
